Measured values as given in patent US4687773A, “(+)-N-N-propylnorapomorphine and selective limbic activity” (priority 1985, dated 1987).
Where a name gives a salt, the structure may show the parent alone.

Test system: DA in the corpus striatum (basal ganglia)
Experiment: Head posture (contralateral head deviation) after intrastriatal DA
Format: in vivo, rat
Conditions: intrastriatal DA 16 μg; aporphine 3 mg/kg systemic (route not given)

With `CCCN1CCc2cccc3c2[C@@H]1Cc1ccc(O)c(O)c1-3` [(+)NPA, (S)-N-n-Propylnorapomorphine Hydrochloride] the “Contralateral Head Deviation, Percent of Total” value was 66.7% of Total and the “Contralateral Head Deviation, Time” value was 480 ± 44 s.
